Results reported in US5792759A, “17-hydroxyiminoalkyl and 17-hydroxyiminomethylalkenyl cyclopentaneperhydrophenanthrene derivatives active on the cardiovascular system, a process for their preparation and pharmaceutical compositions containing the same” (Sigma-Tau Industrie Farmaceutiche Riunite S.p.A., priority 1995, dated 1998).
Where two headings read alike, the source gives them in different places.

Key:
[1] = biological target: T1, Na^+, K^+ -ATPase receptor (Canis lupus familiaris, UniProt P50997); assay: displacement of the specific 3H-oubain binding from the Na+, K+-ATPase receptor; settings: 3H-oubain displacement from purified Na+,K+-ATPase; read-out: Binding ^3 H-oubain displacement -log IC50 (converted)
T1 construct: Na^+, K^+ -ATPase receptor purified according to Jorghensen; from tissue
Source text: (§1) To test the affinity for the receptor site of the Na^+, K^+ -ATPase and the agonist or inhibitory activity on the enzyme, the following tests were used:
a) displacement of the specific ^3 H-oubain binding from the Na^+, K^+ -ATPase receptor purified according to Jorghensen (Jorghensen P., BBA, 1974, 356, 36) and Erdmann (Erdmann E. et al., Arzneim. Forsh, 1984, 34,1314);

[2] = biological target: T2, purified Na^+, K^+ -ATPase (Canis lupus familiaris, UniProt P50997); assay: inhibition of the activity of the purified Na+, K+-ATPase (% of hydrolysis of 32P-ATP); type: biochemical
T2 construct: Na^+, K^+ -ATPase receptor purified according to Jorghensen; from tissue
Source text: as §1
b) inhibition of the activity of the purified Na^+, K^+ -ATPase measured as % of hydrolysis of ^32 P-ATP in the presence and in the absence of the tested compound (Doucet A. et al., Am. J. Physiol., 1986, 251, F851).

Na^+, K^+ -ATPase [3] = settings: reported in DE 4,227,626; cited from earlier work
Na^+, K^+ -ATPase [4] = settings: reported in DE 4,227,626; cited from earlier work; remark: listed apart in the source
[5] = purified Na+,K+-ATPase, 32P-ATP hydrolysis, read-out: Inhibitory activity -log IC50 (converted)

Row | SMILES | IC50 [1] [nM] | IC50 [2] [nM] | IC50 [2, 5] [nM] | affinity for Na^+, K^+ -ATPase (Na^+, K^+ -ATPase [3]) | inhibition of the enzyme Na^+, K^+ -ATPase (Na^+, K^+ -ATPase [4])
1 | CN(C)CCCON=C[C@H]1CC[C@H]2[C@@H]3CC=C4C[C@@H](O)CC[C@]4(C)[C@H]3CC[C@]12C (mixture of isomers) [I-l, (EZ)-17β-(3-dimethylaminopropoxyiminomethyl)-androst-5-en-3β-ol] | 1260 | 25100 |  |  | 
2 | C[C@]12CC[C@H]3[C@@H](CC=C4C[C@@H](O)CC[C@@]43C)[C@@H]1CC[C@@H]2C=NOCCCCN (mixture of isomers) [I-n, (EZ)-17β-(4-aminobutoxyiminomethyl)-androst-5-en-3β-ol] | 2000 |  | 20000 |  | 
3 | CC12CCC(O)CC1CCC1C2CCC2(C)C(C=NO)CCC12O (stereo not drawn) [17-hydroxyiminomethyl-5β-androstan-3β-14β-diol] |  |  |  | good affinity | inhibit the enzyme
4 | CN(C)CCO/N=C/[C@H]1CC[C@H]2[C@@H]3CC[C@@H]4C[C@@H](OCCN5CCCC5)CC[C@]4(C)[C@H]3CC[C@]12C [I-b, (E)-17β-[2-dimethylaminoethoxyiminomethyl]-3β-[2-(1-pirrolidinyl)ethoxy]-5β-androstane] | 501 | 7940 |  |  | 
5 | C[C@]12CC[C@H]3[C@@H](CC=C4C[C@@H](O)CC[C@@]43C)[C@@H]1CC[C@@H]2/C=N/OCCN [I-e, (E)-17β-(2-aminoethoxyiminomethyl)-androst-5-en-3β-ol] | 158 |  | 2000 |  | 
6 | CN(C)CCO/N=C/[C@H]1CC[C@H]2[C@@H]3CC=C4C[C@@H](O)CC[C@]4(C)[C@H]3CC[C@]12C [I-f, (E)-17β-[2-dimethylaminoethoxyiminomethyl]-androst-5-en-3β-ol] | 5010 | 79400 |  |  | 
7 | C[C@]12CC[C@H]3[C@@H](CC=C4C[C@@H](O)CC[C@@]43C)[C@@H]1CC[C@@H]2/C=C/C=N/OCCN [I-g, (E,E)-17β-[3-(2-aminoethoxyimino)-1-propenyl]-androst-5-en-3β-ol] | 251 |  | 1580 |  | 
8 | CN(C)CCO/N=C/C=C/[C@H]1CC[C@H]2[C@@H]3CC=C4C[C@@H](O)CC[C@]4(C)[C@H]3CC[C@]12C [I-h, (E,E)-17β-[3-(2-dimethylaminoethoxyimino)-1-propenyl]-androst-5-en-3β-ol] | 1000 | 5010 |  |  | 
9 | CN(C)CCCO/N=C/C=C/[C@H]1CC[C@H]2[C@@H]3CC=C4C[C@@H](O)CC[C@]4(C)[C@H]3CC[C@]12C [I-i, (E,E)-17β-[3-(3-dimethylaminopropoxyimino)-1-propenyl]-androst-5-en-3β-ol] | 631 | 2510 |  |  | 
10 | C[C@]12CC[C@H]3[C@@H](CC=C4C[C@@H](O)CC[C@@]43C)[C@@H]1CC[C@@H]2/C=N/OCCCN [I-m, (E)-17β-(3-aminopropoxyiminomethyl)-androst-5-en-3β-ol] | 398 | 3980 |  |  | 
